Consider three molecules from publication PMC6382835, “A critical evaluation of TRPA1-mediated locomotor behavior in zebrafish as a screening tool for novel anti-nociceptive drug discovery” (Scientific Reports, 2019).

The assay concerns the target T1, zebrafish TRPA1b (zTRPA1b) (Danio rerio, UniProt A0A8M1N2Z4).
T1 sequence (A0A8M1N2Z4 1-1120): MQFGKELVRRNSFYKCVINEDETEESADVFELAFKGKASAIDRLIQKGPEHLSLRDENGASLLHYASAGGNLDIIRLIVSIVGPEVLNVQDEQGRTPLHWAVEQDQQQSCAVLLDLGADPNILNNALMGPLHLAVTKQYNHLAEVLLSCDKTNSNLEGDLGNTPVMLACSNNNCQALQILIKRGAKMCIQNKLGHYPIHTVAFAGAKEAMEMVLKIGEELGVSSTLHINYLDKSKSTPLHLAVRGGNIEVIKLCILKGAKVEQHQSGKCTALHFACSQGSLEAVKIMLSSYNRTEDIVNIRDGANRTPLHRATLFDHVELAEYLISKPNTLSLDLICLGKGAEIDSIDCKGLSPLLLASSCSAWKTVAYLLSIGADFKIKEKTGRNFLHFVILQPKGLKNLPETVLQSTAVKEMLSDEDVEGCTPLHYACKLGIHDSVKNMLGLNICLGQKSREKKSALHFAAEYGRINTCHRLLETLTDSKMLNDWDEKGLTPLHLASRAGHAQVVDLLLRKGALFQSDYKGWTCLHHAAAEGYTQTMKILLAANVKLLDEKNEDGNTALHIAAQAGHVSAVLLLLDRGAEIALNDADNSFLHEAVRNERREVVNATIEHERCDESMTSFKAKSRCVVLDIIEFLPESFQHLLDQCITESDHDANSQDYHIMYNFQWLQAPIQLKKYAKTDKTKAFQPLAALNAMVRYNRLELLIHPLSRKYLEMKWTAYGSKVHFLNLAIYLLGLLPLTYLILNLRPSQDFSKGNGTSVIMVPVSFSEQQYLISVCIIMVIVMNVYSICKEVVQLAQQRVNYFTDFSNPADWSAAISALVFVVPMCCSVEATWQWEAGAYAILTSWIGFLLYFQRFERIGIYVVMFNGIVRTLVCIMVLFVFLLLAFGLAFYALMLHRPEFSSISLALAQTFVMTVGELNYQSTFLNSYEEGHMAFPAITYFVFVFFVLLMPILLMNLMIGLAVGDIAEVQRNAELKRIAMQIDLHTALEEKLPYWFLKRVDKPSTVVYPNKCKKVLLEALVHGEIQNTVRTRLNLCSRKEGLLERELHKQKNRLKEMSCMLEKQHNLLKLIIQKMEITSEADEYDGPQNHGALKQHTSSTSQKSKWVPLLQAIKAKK
Briefly: FLIPR calcium signaling assay in zTRPA1b-transfected HEK293 cells. It counts as cell-based. The following applies: for EC50: agonist calcium influx, zTRPA1b-transfected HEK293, read-out: EC50 (potency in µM). How it is done:
The cells were maintained in a 37 °C incubator with consistent 5% CO2. […] Experiments were carried out with the approval of the Institutional Biohazard Committee (#13-013-16).
Twenty-five µl calcium sensitive Fluorescent Imaging Plate Reader (FLIPR) Calcium 6 assay dye (#R8190, Molecular Devices, CA, USA) was added to each well of a 384-well plate containing HEK293 cells transiently expressing mTRPA1, zTRPA1a, and zTRPA1b, respectively. The cells were incubated for an hour prior to the recording of intracellular calcium levels in a FlexStation3 Multi-Mode Microplate Reader (#R8190, Molecular Devices) as previously described. […] During the assay, the cells were challenged by a 5x ASP7663 solution or 1% DMSO solution at the 20 seconds time point, and both solutions were diluted in calcium buffer. Relative fluorescence units (RFU) were measured for 120 seconds period by the Flexstation. […] For each specific antagonist concentration we plotted Log(dose ratio-1) against the antagonist concentration in a Schild plot. The dose ratio (A’/A) equals the EC50 of the agonist (ASP7665) in the presence of a concentration of the antagonist (A’) divided by the EC50 of the agonist in the absence of antagonist (A). The x-intercept of the Schild plot was used to identify the antagonist-receptor affinity (pA2).
All data are presented as means ± standard error of the mean (SEM). For our in vitro statistical analysis, AUC of calcium influx (RFU) was measured to plot dose-response curves, which were further analyzed by nonlinear regression analysis. Mean RFU of the first 10 seconds was used as a baseline of the AUC. EC50 values of the dose-response curves were further used to plot Schild curves, and the curves were analyzed with linear regression analysis. For the mice von Frey test, mechanical thresholds were analyzed with two-way ANOVA followed by a Bonferonni test for multiple comparison analysis. For the zebrafish behavior test, the data from the first five seconds following drug administration were excluded, as zebrafish displacement during that period was highly influenced by liquid dispensing. AUC of all curves were measured and analyzed by one-way ANOVA. The post-hoc analysis was conducted with the Tukey’s or Dunnett’s multiple comparisons unless it stated otherwise. […] For our time-course average displacement graph, we used 2nd degree polynomial smoothing for a better representation; however, we used data before smoothing for all statistical analysis and quantification. All in vitro and in vivo data were evaluated using GraphPad Prism 7 (GraphPad Software, La Jolla, CA) unless it stated otherwise.

As usually defined, the EC50 is the concentration at which the effect is half-maximal. Consider `C=CCN=C=S` [AITC, allyl isothiocyanate], for which the EC50 was 35.4 µM.

Consider `CC(C)CN1C(=O)/C(=C/C(=O)O)c2cccc(F)c21` [ASP7663], for which the EC50 stood at 99 µM.

What is called pA2 is the negative logarithm of the molar antagonist concentration that doubles the agonist concentration needed for the same response. `CC(C)c1ccc(NC(=O)Cn2cnc3c2c(=O)n(C)c(=O)n3C)cc1` [HC-030031]: the “calcium influx by antagonist alone” value (316 µM, zTRPA1b-transfected cells) was “could produce an influx of intracellular calcium”. Further, under “Schild plot against ASP7663-mediated calcium influx, zTRPA1b”, the “pA2 expressed in µM” value is recorded as 27.1 µM. Moreover, where the note is “Schild plot against ASP7663-mediated calcium influx, zTRPA1b, only two antagonist doses”, the pA2 is recorded as 4.6 ± 0.3. Moreover, where the note is “zTRPA1b, n = 2”, the Schild slope stood at 0.83 ± 0.05.
